{
  "source": "PubChem BioAssay AID588803",
  "about": "(The Scripps Research Institute Molecular Screening Center, 2011)",
  "experiment_in_all_cases": "in-cell serine hydrolase inhibition profile, late-stage follow-up, selectivity assay for PME-1 inhibitor project, ABPP-SILAC, LC-MS/MS, mouse cells (AID 588803)",
  "key": {"[1]": {"tested_on": "Parl", "details": "serine hydrolase ratios, active compounds read low"}, "[2]": {"tested_on": "Dpp7", "details": "serine hydrolase ratios, active compounds read low"}, "[3]": {"tested_on": "Pgap1", "details": "serine hydrolase ratios, active compounds read low"}, "[4]": {"tested_on": "Acot7", "details": "serine hydrolase ratios, active compounds read low"}, "[5]": {"tested_on": "Lypla2", "details": "serine hydrolase ratios, active compounds read low"}, "[6]": {"tested_on": "Pla2g15", "details": "serine hydrolase ratios, active compounds read low"}, "[7]": {"tested_on": "Ppt2", "details": "serine hydrolase ratios, active compounds read low"}, "[8]": {"tested_on": "Pafah1b2", "details": "serine hydrolase ratios, active compounds read low"}, "[9]": {"tested_on": "Dpp8", "details": "serine hydrolase ratios, active compounds read low"}, "[10]": {"tested_on": "Ache", "details": "serine hydrolase ratios, active compounds read low"}, "[11]": {"molecular_target": "Acyl-protein thioesterase 1 (Mus musculus) (UniProt P97823)", "sequence (P97823 whole entry, looked up)": "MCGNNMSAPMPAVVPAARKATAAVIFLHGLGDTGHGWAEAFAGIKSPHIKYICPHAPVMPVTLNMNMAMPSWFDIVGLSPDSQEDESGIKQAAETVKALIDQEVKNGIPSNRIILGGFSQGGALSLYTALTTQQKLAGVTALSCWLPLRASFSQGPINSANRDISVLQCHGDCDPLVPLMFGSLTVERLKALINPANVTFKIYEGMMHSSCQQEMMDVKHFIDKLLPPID", "details": "serine hydrolase ratios, Lypla1, active compounds read low"}, "[12]": {"tested_on": "Pafah1b3", "details": "serine hydrolase ratios, active compounds read low"}, "[13]": {"tested_on": "Abhd12", "details": "serine hydrolase ratios, active compounds read low"}, "[14]": {"tested_on": "Apeh", "details": "serine hydrolase ratios, active compounds read low"}, "[15]": {"tested_on": "Dpp9", "details": "serine hydrolase ratios, active compounds read low"}, "[16]": {"tested_on": "Rbbp9", "details": "serine hydrolase ratios, active compounds read low"}, "[17]": {"molecular_target": "Platelet-activating factor acetylhydrolase 2, cytoplasmic (Mus musculus) (UniProt Q8VDG7)", "sequence (Q8VDG7 whole entry, looked up)": "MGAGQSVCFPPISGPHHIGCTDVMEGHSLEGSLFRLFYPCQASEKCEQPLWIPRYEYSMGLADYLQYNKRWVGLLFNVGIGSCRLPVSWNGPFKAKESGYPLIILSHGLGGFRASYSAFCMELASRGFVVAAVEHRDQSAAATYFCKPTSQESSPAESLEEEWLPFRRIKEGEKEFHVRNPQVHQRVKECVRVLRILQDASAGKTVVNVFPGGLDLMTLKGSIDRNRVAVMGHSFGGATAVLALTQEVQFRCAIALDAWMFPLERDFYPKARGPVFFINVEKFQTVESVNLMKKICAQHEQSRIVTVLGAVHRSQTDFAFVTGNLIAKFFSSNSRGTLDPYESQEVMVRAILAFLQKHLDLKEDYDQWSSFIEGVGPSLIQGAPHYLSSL", "details": "serine hydrolase ratios, Pafah2, active compounds read low"}, "[18]": {"molecular_target": "Palmitoyl-protein thioesterase ABHD10, mitochondrial (Mus musculus) (UniProt Q6PE15)", "sequence (Q6PE15 whole entry, looked up)": "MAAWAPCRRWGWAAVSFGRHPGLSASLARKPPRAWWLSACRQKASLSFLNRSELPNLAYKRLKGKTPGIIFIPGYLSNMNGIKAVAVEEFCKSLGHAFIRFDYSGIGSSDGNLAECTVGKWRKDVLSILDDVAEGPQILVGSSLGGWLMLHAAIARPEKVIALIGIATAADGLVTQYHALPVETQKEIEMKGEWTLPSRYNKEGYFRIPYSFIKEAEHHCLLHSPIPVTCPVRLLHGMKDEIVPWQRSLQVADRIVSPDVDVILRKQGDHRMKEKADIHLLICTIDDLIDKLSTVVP", "details": "serine hydrolase ratios, active compounds read low"}, "[19]": {"tested_on": "Fam108b1", "details": "serine hydrolase ratios, active compounds read low"}, "[20]": {"tested_on": "Ctsa", "details": "serine hydrolase ratios, active compounds read low"}, "[21]": {"tested_on": "Serhl", "details": "serine hydrolase ratios, active compounds read low"}, "[22]": {"tested_on": "Bat5", "details": "serine hydrolase ratios, active compounds read low"}, "[23]": {"tested_on": "Acot1", "details": "serine hydrolase ratios, active compounds read low"}, "[24]": {"tested_on": "Faah", "details": "serine hydrolase ratios, active compounds read low"}, "[25]": {"tested_on": "Acot2", "details": "serine hydrolase ratios, active compounds read low"}, "[26]": {"molecular_target": "Prolyl endopeptidase (Mus musculus) (UniProt Q9QUR6)", "sequence (Q9QUR6 whole entry, looked up)": "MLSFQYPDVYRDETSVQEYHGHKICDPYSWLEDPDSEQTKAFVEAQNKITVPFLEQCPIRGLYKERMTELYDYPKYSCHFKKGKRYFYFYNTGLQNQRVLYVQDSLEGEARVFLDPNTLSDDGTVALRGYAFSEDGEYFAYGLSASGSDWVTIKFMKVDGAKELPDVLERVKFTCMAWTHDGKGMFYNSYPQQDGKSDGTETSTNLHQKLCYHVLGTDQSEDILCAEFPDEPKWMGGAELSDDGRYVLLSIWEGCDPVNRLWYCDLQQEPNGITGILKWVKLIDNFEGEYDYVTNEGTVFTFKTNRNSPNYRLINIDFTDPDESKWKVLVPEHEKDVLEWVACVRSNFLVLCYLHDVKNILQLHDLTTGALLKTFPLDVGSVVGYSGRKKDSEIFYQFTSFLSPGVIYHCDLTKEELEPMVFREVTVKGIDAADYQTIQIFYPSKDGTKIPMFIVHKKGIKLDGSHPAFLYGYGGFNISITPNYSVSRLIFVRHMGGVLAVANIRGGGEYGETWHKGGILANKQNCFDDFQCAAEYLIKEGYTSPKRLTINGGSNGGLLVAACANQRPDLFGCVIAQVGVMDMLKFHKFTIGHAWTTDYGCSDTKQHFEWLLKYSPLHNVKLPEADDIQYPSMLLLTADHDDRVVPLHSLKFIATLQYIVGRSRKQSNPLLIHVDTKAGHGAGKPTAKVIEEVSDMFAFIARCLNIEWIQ", "details": "serine hydrolase ratios, Prep, active compounds read low"}, "[27]": {"tested_on": "Pla2g6", "details": "serine hydrolase ratios, active compounds read low"}, "[28]": {"tested_on": "Pme1", "details": "serine hydrolase ratios, active compounds read low"}, "[29]": {"tested_on": "Prcp", "details": "serine hydrolase ratios, active compounds read low"}, "[30]": {"tested_on": "Ddhd2", "details": "serine hydrolase ratios, active compounds read low"}, "[31]": {"tested_on": "Pnpla8", "details": "serine hydrolase ratios, active compounds read low"}, "[32]": {"tested_on": "Acot9", "details": "serine hydrolase ratios, active compounds read low"}, "[33]": {"tested_on": "Iah1", "details": "serine hydrolase ratios, active compounds read low"}, "[34]": {"tested_on": "Nceh1", "details": "serine hydrolase ratios, active compounds read low"}, "[35]": {"tested_on": "Lyplal1", "details": "serine hydrolase ratios, active compounds read low"}, "[36]": {"molecular_target": "Monoacylglycerol lipase ABHD6 (Mus musculus) (UniProt Q8R2Y0)", "sequence (Q8R2Y0 whole entry, looked up)": "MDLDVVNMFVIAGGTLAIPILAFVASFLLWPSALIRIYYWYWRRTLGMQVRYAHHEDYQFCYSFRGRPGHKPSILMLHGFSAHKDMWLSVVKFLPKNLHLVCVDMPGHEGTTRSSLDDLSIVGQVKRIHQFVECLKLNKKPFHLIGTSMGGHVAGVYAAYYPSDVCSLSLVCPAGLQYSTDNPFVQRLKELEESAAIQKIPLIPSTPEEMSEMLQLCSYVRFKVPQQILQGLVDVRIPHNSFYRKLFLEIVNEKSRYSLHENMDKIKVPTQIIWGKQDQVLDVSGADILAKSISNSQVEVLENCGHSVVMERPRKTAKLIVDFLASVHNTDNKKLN", "details": "serine hydrolase ratios, active compounds read low"}, "[37]": {"tested_on": "Prepl", "details": "serine hydrolase ratios, active compounds read low"}, "[38]": {"tested_on": "Htra2", "details": "serine hydrolase ratios, active compounds read low"}, "[39]": {"tested_on": "Fasn", "details": "serine hydrolase ratios, active compounds read low"}, "[40]": {"tested_on": "Abhd11", "details": "serine hydrolase ratios, active compounds read low"}},
  "note": "Active and inactive are the calls of the source. No rule for the calls is given here.",
  "data": [
    {"compound": "COC(=O)N1C(=O)[C@](c2ccccc2)(C2CCCC2)N1C(=O)OC", "values": [
      {"measurement": "SILAC ratio (probe labeling remaining)", "setting": "[1]", "value": "0.995 (inactive)"},
      {"measurement": "SILAC ratio (probe labeling remaining)", "setting": "[2]", "value": "0.846 (inactive)"},
      {"measurement": "SILAC ratio (probe labeling remaining)", "setting": "[3]", "value": "1.1 (inactive)"},
      {"measurement": "SILAC ratio (probe labeling remaining)", "setting": "[4]", "value": "1.32 (inactive)"},
      {"measurement": "SILAC ratio (probe labeling remaining)", "setting": "[5]", "value": "0.927 (inactive)"},
      {"measurement": "SILAC ratio (probe labeling remaining)", "setting": "[6]", "value": "1.01 (inactive)"},
      {"measurement": "SILAC ratio (probe labeling remaining)", "setting": "[7]", "value": "0.812 (inactive)"},
      {"measurement": "SILAC ratio (probe labeling remaining)", "setting": "[8]", "value": "0.887 (inactive)"},
      {"measurement": "SILAC ratio (probe labeling remaining)", "setting": "[9]", "value": "0.859 (inactive)"},
      {"measurement": "SILAC ratio (probe labeling remaining)", "setting": "[10]", "value": "0.689 (inactive)"},
      {"measurement": "SILAC ratio (probe labeling remaining)", "setting": "[11]", "value": "1 (inactive)"},
      {"measurement": "SILAC ratio (probe labeling remaining)", "setting": "[12]", "value": "0.962 (inactive)"},
      {"measurement": "SILAC ratio (probe labeling remaining)", "setting": "[13]", "value": "1.13 (inactive)"},
      {"measurement": "SILAC ratio (probe labeling remaining)", "setting": "[14]", "value": "0.821 (inactive)"},
      {"measurement": "SILAC ratio (probe labeling remaining)", "setting": "[15]", "value": "0.937 (inactive)"},
      {"measurement": "SILAC ratio (probe labeling remaining)", "setting": "[16]", "value": "1.06 (inactive)"},
      {"measurement": "SILAC ratio (probe labeling remaining)", "setting": "[17]", "value": "0.913 (inactive)"},
      {"measurement": "SILAC ratio (probe labeling remaining)", "setting": "[18]", "value": "0.951 (inactive)"},
      {"measurement": "SILAC ratio (probe labeling remaining)", "setting": "[19]", "value": "1.2 (inactive)"},
      {"measurement": "SILAC ratio (probe labeling remaining)", "setting": "[20]", "value": "0.869 (inactive)"},
      {"measurement": "SILAC ratio (probe labeling remaining)", "setting": "[21]", "value": "1.12 (inactive)"},
      {"measurement": "SILAC ratio (probe labeling remaining)", "setting": "[22]", "value": "1.06 (inactive)"},
      {"measurement": "SILAC ratio (probe labeling remaining)", "setting": "[23]", "value": "0.914 (inactive)"},
      {"measurement": "SILAC ratio (probe labeling remaining)", "setting": "[24]", "value": "1.06 (inactive)"},
      {"measurement": "SILAC ratio (probe labeling remaining)", "setting": "[25]", "value": "0.873 (inactive)"},
      {"measurement": "SILAC ratio (probe labeling remaining)", "setting": "[26]", "value": "1.01 (inactive)"},
      {"measurement": "SILAC ratio (probe labeling remaining)", "setting": "[27]", "value": "0.796 (inactive)"},
      {"measurement": "SILAC ratio (probe labeling remaining)", "setting": "[28]", "value": 0},
      {"measurement": "SILAC ratio (probe labeling remaining)", "setting": "[29]", "value": "0.717 (inactive)"},
      {"measurement": "SILAC ratio (probe labeling remaining)", "setting": "[30]", "value": "1.19 (inactive)"},
      {"measurement": "SILAC ratio (probe labeling remaining)", "setting": "[31]", "value": "1.09 (inactive)"},
      {"measurement": "SILAC ratio (probe labeling remaining)", "setting": "[32]", "value": "0.889 (inactive)"},
      {"measurement": "SILAC ratio (probe labeling remaining)", "setting": "[33]", "value": "1 (inactive)"},
      {"measurement": "SILAC ratio (probe labeling remaining)", "setting": "[34]", "value": "1.01 (inactive)"},
      {"measurement": "SILAC ratio (probe labeling remaining)", "setting": "[35]", "value": "1.29 (inactive)"},
      {"measurement": "SILAC ratio (probe labeling remaining)", "setting": "[36]", "value": "0.98 (inactive)"},
      {"measurement": "SILAC ratio (probe labeling remaining)", "setting": "[37]", "value": "0.931 (inactive)"},
      {"measurement": "SILAC ratio (probe labeling remaining)", "setting": "[38]", "value": "1.07 (inactive)"},
      {"measurement": "SILAC ratio (probe labeling remaining)", "setting": "[39]", "value": "0.971 (inactive)"},
      {"measurement": "SILAC ratio (probe labeling remaining)", "setting": "[40]", "value": "0.946 (inactive)"}
    ]}
  ]
}
